Measured values taken from US20120082631A1, “COMPOSITIONS” (priority 2009, published 2012).

Test: Sensory panel astringency ranking after brushing with toothpaste samples
Type: in vivo
Settings: for astringency ratings compared to those of the standard toothpaste base and the current market product: flavour material at 1000 ppm in toothpaste base with 0.75% zinc citrate, statement in words; for Astringency Rating (0-10): mean rating by a panel of three trained experts, 0 = no astringency, 10 = strong astringency, ingredients at 1000 ppm (0.1% w/w) in Standard Toothpaste Base with 0.75% Zinc Citrate, 30 seconds brushing, spit out, one water rinse
Procedure: Differing flavour ingredients were added, at a concentration of 1000 ppm, to a non-flavoured toothpaste base containing 0.75% zinc citrate (ZCT).
Measured samples, of equal weight, of the non-flavoured toothpaste base containing 0.75% ZCT and the same toothpaste base modified with flavour ingredients were then placed on toothbrushes. The samples were tested by a panel of three independent trained experts. The panelists were instructed to brush their teeth for 30 seconds, spit out and rinse once with water. The subjects were then asked to rank the astringency on a scale of 0 to 10 for each sample, 0 representing no astringency and 10 representing strong astringency. A current market product was also tested in the same way.
Table 1 lists the flavour ingredients added to the non-flavoured toothpaste base containing 0.75% zinc citrate, along with the mean astringency rating of each sample. Also included in table 1 is the mean astringency rating of the non-flavoured toothpaste base containing 0.75% ZCT and the current market product.

| Structure (SMILES) | astringency ratings compared to those of the standard toothpaste base and the current market product | Astringency Rating (0-10) |
| --- | --- | --- |
| CC1=C(O)C(=O)CC1 [Cyclotene, 2-hydroxy-3-methyl-2-cyclopenten-1-one] | significantly lower astringency ratings | 4.5 |
| CCc1occc(=O)c1O [Ethyl Maltol, 2-ethyl-3-hydroxy-4H-pyran-4-one] | significantly lower astringency ratings | 3.5 |
| Cc1occc(=O)c1O [Maltol, 3-hydroxy-2-methyl-4H-pyran-4-one] | significantly lower astringency ratings | 3.8 |
| COc1cc(C=O)ccc1O [Vanillin, reference compound] | – | 6.5 |
